Test results published in PubChem BioAssay AID2060908 (Molecular Pharmacology Branch, DTP, NCI, 2025).

Tested on: 186277-243-T-J2-PDC complex spheroids, viability
Experiment: Anticancer human tumor 186277-243-T-J2-PDC patient-derived colon adenocarcinoma cell line growth inhibition [RAS]
Conditions: for IC50: curve of first compound; for viability, T/C: stronger effect = lower value
Description: RAS pathway inhibitors in Combinations in Complex Spheroids
A high-throughput screen of multi-cell type tumor spheroids was designed to identify active combinations of RAS pathway inhibitors and targeted small molecules. Complex spheroids include a stromal component modeled by human endothelial cells (HUVEC) and fibroblasts modeled by human mesenchymal stem cells (MSCs). The concentration ranges selected for each drug and investigational agent were based upon clinically achievable concentrations if the clinical Cmax of the agent was known.
Compounds. The drugs and investigational agents: abemaciclib (NSC768073), cobimetinib (NSC768068), divarasib (GDC6063, NSC841802), docetaxel (NSC628503), GDC-1971 (RLY-1971, NSC841576), gemcitabine (NSC613327), inavolisib (NSC800729), ipatasertib (NSC767898), KB-0742 (NSC834161), MRTX-1133 (NSC836407), osimertinib (NSC779217), RMC-4630 (NSC839698), RMC-6236 (NSC851965), RMC-6291 (NSC852671), Ro-3306 (NSC812927), sapanisertib (NSC764658), SN-38 (NSC673596), staurosporine (NSC755774), SY5609 (NSC837396), and tovorafenib (DAY101, NSC766906), were obtained from the National Cancer Institute (NCI) Developmental Therapeutics Program Chemical Repository. The FDA-approved anticancer drug set is available from the NCI Developmental Therapeutics Program. […] The stock solutions were prepared in dimethyl sulfoxide (DMSO, Sigma-Aldrich, St. Louis, MO, cat. D2650) at 800-fold the tested concentration and stored at -70 degrees C prior to their use. All drugs and investigational agents were tested over a range starting from a high concentration at or near the clinical Cmax and decreasing in half-log increments. If the clinical Cmax for an agent had not been determined, the highest concentration tested was 10 microM.
Cell Culture. All cells were maintained in an incubator at 37 degrees C and 5% CO2 with 95% humidity. The PDC lines were cultured according to standard operating procedures established by the NCI PDMR. All PDCs were thawed and cultured in Matrigel-coated flasks prepared with a working solution of 1X Ham's F-12 nutrient mix, without supplementation (Invitrogen, Waltham, MA, cat. 11765054), 100 U/mL penicillin-streptomycin (Invitrogen, cat. 15140122), and 2.5% Matrigel (Corning Inc., Corning, NY, cat. 354248) for the first three passages. The 362531-283-R-J2-PDC and 782815-120-R-J1-PDC lines were cultured in 6C/Colon 1B media, which includes advanced DMEM/F-12 (Thermo Fisher Scientific, cat. 12634028), 10 mM HEPES (Thermo Fisher Scientific, cat. 15630080), 1X GlutaMAX supplement (Thermo Fisher Scientific, cat. 35050061), 0.1 mg/mL primocin (InvivoGen, San Diego, CA, cat. ant-pm-2), 10% defined fetal bovine serum, heat inactivated (HyClone Laboratories Inc., Logan, UT, cat. SH30070.03HI), 50% L-WRN conditioned media (ATCC, cat. CRL-3276), 1.25 mM N-Acetyl-L-cysteine (Sigma-Aldrich, cat. A9165), 10 mM nicotinamide (Sigma-Aldrich, cat. N0636), 1X B-27 supplement (Thermo Fisher Scientific, cat. 17504044), 1X N-2 supplement (Thermo Fisher Scientific, cat. 17502048), 50 ng/mL human EGF (Thermo Fisher Scientific, cat. PHG0311), and 10 microM Y-27632 dihydrochloride (Tocris Bioscience, cat. 1254). The K12877-001-R-J1-PDC line was cultured in 6I media, which includes all 6C/Colon 1B media plus 10 ng/mL human FGF-10 (PeproTech, cat. 100-26), 1 ng/mL human FGF-2 (PeproTech, cat. 100-18B), 1 µM prostaglandin E2 (Tocris Bioscience, cat. 2296), […] hydrocortisone (Sigma-Aldrich, cat. H4001), and […] bovine insulin (Sigma-Aldrich, cat. I6634). The K86415-001-R-J1-PDC line was cultured in 6D media, which includes all 6C/Colon 1B media components minus the L-WRN conditioned media. The 485176-168-R4-J1-PDC was cultured in PANC media, which includes all 6C/Colon 1B media plus 100 ng/mL human FGF-10 (PeproTech, cat. 100-26), 500 nM SB-431542 (Selleckchem, cat. S1067), and 10 nM gastrin (Tocris Bioscience, cat. 3006). […]
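Further: spheroids exposed to compounds for 7 days before viability read.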

Structure (SMILES): C[C@@H](NC(=O)c1ncnc(N)c1Cl)c1ncc(C(=O)Nc2cc(C(F)(F)F)c(Cl)cn2)s1 + C#Cc1c(F)ccc2cc(O)cc(-c3ncc4c(N5CC6CCC(C5)N6)nc(OCC56CCCN5CC(F)C6)nc4c3F)c12
- IC50 (second compound 0.0316 µM): 9.76 µM
- IC50 (second compound 0.1 µM): 4.17 µM
- IC50 (second compound 0.316 µM): < 0.0316 µM
- IC50 (second compound 1 µM): < 0.0316 µM
- IC50 (second compound 3.16 µM): < 0.0316 µM
- IC50 (second compound 10 µM): < 0.0316 µM
- viability, T/C (second compound 0.0316 µM, first compound 0.0316 µM): 104%
- viability, T/C (second compound 0.0316 µM, first compound 0.1 µM): 98.5%
- viability, T/C (second compound 0.0316 µM, first compound 0.316 µM): 90.6%
- viability, T/C (second compound 0.0316 µM, first compound 1 µM): 91.7%
- viability, T/C (second compound 0.0316 µM, first compound 3.16 µM): 76.1%
- viability, T/C (second compound 0.0316 µM, first compound 10 µM): 48.8%
- viability, T/C (second compound 0.1 µM, first compound 0.0316 µM): 77.2%
- viability, T/C (second compound 0.1 µM, first compound 0.1 µM): 69.5%
- viability, T/C (second compound 0.1 µM, first compound 0.316 µM): 62.1%
- viability, T/C (second compound 0.1 µM, first compound 1 µM): 61.3%
- viability, T/C (second compound 0.1 µM, first compound 3.16 µM): 60.8%
- viability, T/C (second compound 0.1 µM, first compound 10 µM): 26.7%
- viability, T/C (second compound 0.316 µM, first compound 0.0316 µM): 36.3%
- viability, T/C (second compound 0.316 µM, first compound 0.1 µM): 49.8%
- viability, T/C (second compound 0.316 µM, first compound 0.316 µM): 38.5%
- viability, T/C (second compound 0.316 µM, first compound 1 µM): 36%
- viability, T/C (second compound 0.316 µM, first compound 3.16 µM): 23.7%
- viability, T/C (second compound 0.316 µM, first compound 10 µM): 14.4%
- viability, T/C (second compound 1 µM, first compound 0.0316 µM): 20.9%
- viability, T/C (second compound 1 µM, first compound 0.1 µM): 23.9%
- viability, T/C (second compound 1 µM, first compound 0.316 µM): 22.7%
- viability, T/C (second compound 1 µM, first compound 1 µM): 22.3%
- viability, T/C (second compound 1 µM, first compound 3.16 µM): 18.8%
- viability, T/C (second compound 1 µM, first compound 10 µM): 11.1%
- viability, T/C (second compound 3.16 µM, first compound 0.0316 µM): 15.4%
- viability, T/C (second compound 3.16 µM, first compound 0.1 µM): 17.6%
- viability, T/C (second compound 3.16 µM, first compound 0.316 µM): 15.1%
- viability, T/C (second compound 3.16 µM, first compound 1 µM): 15.4%
- viability, T/C (second compound 3.16 µM, first compound 3.16 µM): 10.9%
- viability, T/C (second compound 3.16 µM, first compound 10 µM): 8.51%
- viability, T/C (second compound 10 µM, first compound 0.0316 µM): 9.89%
- viability, T/C (second compound 10 µM, first compound 0.1 µM): 10.8%
- viability, T/C (second compound 10 µM, first compound 0.316 µM): 14%
- viability, T/C (second compound 10 µM, first compound 1 µM): 12.8%
- viability, T/C (second compound 10 µM, first compound 3.16 µM): 8%
- viability, T/C (second compound 10 µM, first compound 10 µM): 8.5%
